Source: patent US10799494B2, “Combination of respiratory electron transport chain inhibitors with a cytochrome bd inhibitor” (priority 2015, dated 2020)

tested on: M. tuberculosis H37Rv; assay: M. tuberculosis H37Rv growth inhibition screen at fixed 5 μM; type: cell-based, Mycobacterium tuberculosis; conditions: 5 μM compound

| Molecule | Growth of M. tuberculosis H37Rv (aerobic) at 5 μM of [compounds] |
| --- | --- |
| Cc1c(-c2ccc(N3CCCCC3)cc2)[nH]c2cc(F)cc(F)c2c1=O [MTD-403, 5,7-Difluoro-3-methyl-2-(4-(piperidin-1-yl)phenyl)quinolin-4(1H)-one] | No growth |
| COc1ccc2c(=O)c(C)c(-c3ccc(N4CCCCC4)cc3)[nH]c2c1 [RKA-310, 7-methoxy-3-methyl-2-(4-(piperidin-1-yl)phenyl)quinolin-4(1H)-one] | No growth |

same assay, conditions: Mycobacterium tuberculosis, H37RV; aerobic; 5 μM compound; read-out: Growth of M. tuberculosis H37Rv (aerobic) at 5 μM of [compounds]

| Molecule | activity at 5 µM |
| --- | --- |
| Cc1c(-c2ccc(Oc3ccc(F)cc3)nc2)[nH]c2ccccc2c1=O [CK-3-14, 2-(6-(4-Fluorophenoxy)pyridin-3-yl)-3-methylquinolin-4(1H)-one] | 100% |
| COc1c(C)c(-c2ccc(Cc3ccccc3)cc2)nc2ccccc12 [CK-3-23, 2-(4-Benzylphenyl)-4-methoxy-3-methylquinoline] | 6.6% |
| CCOC(=O)c1c(-c2ccc(Cc3ccc(OC(F)(F)F)cc3)cc2)[nH]c2ccccc2c1=O [GN-1710, Ethyl 4-oxo-2-(4-(4-(trifluoromethoxy)benzyl)phenyI)-1,4-dihydroquinoline-3-carboxylate] | 100% |
| Cc1c(-c2ccc(-c3ccc(C(F)(F)F)nc3)nc2)[nH]c2ccccc2c1=O [PG-128, 3-Methyl-2-(6′-(trifluoromethyl)-[2,3′-bipyridin]-5-yl)quinolin-4(1H)-one] | 95.6% |
| Cc1[nH]c2ccccc2c(=O)c1-c1ccc(Oc2ccc(OC(F)(F)F)cc2)cc1 [PG-203, 2-Methyl-3-(4-(4-(trifluoromethoxy)phenoxy)phenyl)quinolin-4(1H)-one] | 100% |
| O=c1cc(-c2ccc(Cc3ccc(OC(F)(F)F)cc3)cc2)n(O)c2ccccc12 [RKA-73, 1-Hydroxy-2-(4-(4-(trifluoromethoxy)benzyl)phenyl)quinolin-4(1H)-one] | 100% |
| COc1ccc2c(=O)c(C)c(-c3ccc(Oc4ccc(OC(F)(F)F)cc4)nc3)[nH]c2c1 [RKA-259, 7-Methoxy-3-methyl-2-(6-(4-(trifluoromethoxy)phenoxy)pyridin-3-yl)quinolin-4(1H)-one] | 12.6% |
| Cc1c(-c2ccc(N3CCCCC3)cc2)[nH]c2ccccc2c1=O [RKA-307, 3-Methyl-2-(4-(piperidin-1-yl)phenyl)quinolin-4(1H)-one] | 1.8% |
| CCOC(=O)c1c(-c2ccc(-c3ccc(Cl)cc3)cc2)[nH]c2ccccc2c1=O [WDH-1U-10, Ethyl 2-(4′-chloro-[1,1′-biphenyl]-4-yl)-4-oxo-1,4-dihydroquinoline-3-carboxylate] | 82.2% |
| O=c1cc(-c2cnn(Cc3ccc(OC(F)(F)F)cc3)c2)[nH]c2ccccc12 [WDH-1W-5, 2-(1-(4-(Trifluoromethoxy)benzyl)-1H-pyrazol-4-yl)quinolin-4(1H)-one] | 61.3% |
| Cc1c(-c2cnn(Cc3ccc(OC(F)(F)F)cc3)c2)[nH]c2ccccc2c1=O [WDH-2A-9, 3-Methyl-2-(1-(4-(trifluoromethoxy)benzyl)-1H-pyrazol-4-yl)quinolin-4(1H)-one] | 97.4% |

molecular target: M. tuberculosis cytochrome bd-I (Mycobacterium tuberculosis, UniProt L7N662); assay: not given; type: biochemical; conditions: not given
Sequence (L7N662 1-485): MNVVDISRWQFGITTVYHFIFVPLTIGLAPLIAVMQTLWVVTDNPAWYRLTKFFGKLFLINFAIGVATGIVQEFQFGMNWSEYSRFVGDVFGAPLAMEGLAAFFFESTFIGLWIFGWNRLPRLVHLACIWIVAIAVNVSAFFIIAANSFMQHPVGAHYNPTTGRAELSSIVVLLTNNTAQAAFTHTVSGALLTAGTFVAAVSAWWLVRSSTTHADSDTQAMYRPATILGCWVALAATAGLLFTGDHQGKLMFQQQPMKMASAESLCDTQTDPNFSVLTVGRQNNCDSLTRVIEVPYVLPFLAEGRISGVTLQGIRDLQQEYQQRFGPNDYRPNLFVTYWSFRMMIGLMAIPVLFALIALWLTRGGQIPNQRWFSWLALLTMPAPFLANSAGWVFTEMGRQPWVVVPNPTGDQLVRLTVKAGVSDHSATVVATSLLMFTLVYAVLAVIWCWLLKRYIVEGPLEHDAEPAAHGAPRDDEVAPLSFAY

| Molecule | inhibition @ 1 uM (% of cntls) |
| --- | --- |
| 3-Methyl-2-(1-(4-(trifluoromethoxy)phenethyl)-1H-pyrazol-4-yl)quinolin-4(1H)-one [WDH-2R-4] | 56.2 % of cntls |
| Cc1c(-c2cccc(Cc3ccc(OC(F)(F)F)cc3)c2)[nH]c2ccccc2c1=O [CK-2-58, 3-Methyl-2-(3-(4-(trifluoromethoxy)benzyl)phenyl)quinolin-4(1H)-one] | 82.3 % of cntls |
| COc1ccc(Cc2ccc(-c3[nH]c4ccccc4c(=O)c3C)cc2)cc1 [CK-2-96, 2-(4-(4-Methoxybenzyl)phenyI)-3-methylquinolin-4(1H)-one] | 85.7 % of cntls |
| Cc1c(-c2ccc(Oc3ccc(OC(F)(F)F)cc3)nc2)[nH]c2ccccc2c1=O [CK-3-22, 3-Methyl-2-(6-(4-(trifluoromethoxy)phenoxy)pyridin-3-yl)quinolin-4(1H)-one] | 62.8 % of cntls |
| O=c1cc(-c2ccc(Cc3ccc(OC(F)(F)F)cc3)cc2)[nH]c2cc(O)c(F)cc12 [CK-3-68, 6-Fluoro-7-hydroxy-2-(4-(4-(trifluoromethoxy)benzyl)phenyl)quinolin-4(1H)-one] | 71.7 % of cntls |
| Cc1c(-c2ccc(Oc3cccc(OCCN4CCOCC4)c3)cc2)[nH]c2ccccc2c1=O [CK-4-15, 3-Methyl-2-(4-(3-(2-morpholinoethoxy)phenoxy)phenyl)quinolin-4(1H)-one] | 66.6 % of cntls |
| Cc1c(-c2ccc(OC3CCC(F)(F)CC3)cc2)[nH]c2ccccc2c1=O [PG105, 2-(4-((4,4-Difluorocyclohexyl)oxy)phenyI)-3-methylquinolin-4(1H)-one] | 71.5 % of cntls |
| Cc1c(-c2ccc(Cc3cccc(OCCN4CCOCC4)c3)cc2)[nH]c2ccccc2c1=O [PG201, 3-Methyl-2-(4-(3-(2-morpholinoethoxy)benzyl)phenyl)quinolin-4(1H)-one] | 68.7 % of cntls |
| O=c1c(-c2ccc(Oc3ccc(OC(F)(F)F)cc3)cc2)c(CO)[nH]c2ccccc12 [PG208, 2-(Hydroxymethyl)-3-(4-(4-(trifluoromethoxy)phenoxy)phenyl)quinolin-4(1H)-one] | 66.7 % of cntls |
| Cc1c(-c2ccc(-c3ccc(C(F)(F)F)cc3)nc2)[nH]c2ccccc2c1=O [RKA 142, 3-Methyl-2-(6-(4-(trifluoromethyl)phenyl)pyridin-3-yl)quinolin-4(1H)-one] | >50 % of cntls |
| COc1cccc2[nH]c(-c3ccc(-c4ccc(OC(F)(F)F)cc4)nc3)c(C)c(=O)c12 [SCR-04-04, 5-Methoxy-3-methyl-2-(6-(4-(trifluoromethoxy)phenyl)pyridin-3-yl)quinolin-4(1H)-one] | 65.4 % of cntls |
| COc1ccc2[nH]c(-c3ccc(Cc4ccc(OC(F)(F)F)cc4)cc3)c(C)c(=O)c2c1 [SCR-05-03, 6-Methoxy-3-methyl-2-(4-(4-(trifluoromethoxy)benzyl)phenyl)quinolin-4(1H)-one] | 60.9 % of cntls |
| Cc1c(-c2ccc(Cc3ccc(OC(F)(F)F)cc3)cc2)[nH]c2c(O)cccc2c1=O [SCR-06-03D, 8-Hydroxy-3-methyl-2-(4-(4-(trifluoromethoxy)benzyl)phenyl)quinolin-4(1H)-one] | 73.1 % of cntls |
| Cc1c(-c2ccc(Cc3ccc(OC(F)(F)F)cc3)cc2)[nH]c2cc(O)ccc2c1=O [SCR-45-01D, 7-Hydroxy-3-methyl-2-(4-(4-(trifluoromethoxy)benzyl)phenyl)quinolin-4(1H)-one] | 81.5 % of cntls |
| Cc1c(-c2ccc(-c3ccccc3C(F)(F)F)cc2)[nH]c2ccccc2c1=O [SL-2-36, 3-Methyl-2-(2′-(trifluoromethyl)-[1,1′-biphenyl]-4-yl)quinolin-4(1H)-one] | 90.5 % of cntls |
| Cc1c(-c2ccc(-c3ccccc3F)cc2)[nH]c2ccccc2c1=O [SL-3-3, 2-(2′-Fluoro-[1,1′-biphenyl]-4-yl)-3-methylquinolin-4(1H)-one] | 62.2 % of cntls |
| CCOC(=O)c1c(-c2ccc(-c3ccc(Cl)cc3)cc2)[nH]c2ccccc2c1=O [WDH-1V-9, Ethyl 2-(4′-chloro-[1,1′-biphenyl]-4-yl)-4-oxo-1,4-dihydroquinoline-3-carboxylate] | 87.5 % of cntls |
| CCOC(=O)c1c(-c2ccc(-c3ccc(OC(F)(F)F)cc3)cc2)[nH]c2ccccc2c1=O [WDH-1V-10, Ethyl 4-oxo-2-(4′-(trifluoromethoxy)-[1,1′-biphenyl]-4-yl)-1,4-dihydroquinoline-3-carboxylate] | 79.4 % of cntls |
| CC(C)c1c(-c2cnn(Cc3ccc(OC(F)(F)F)cc3)c2)[nH]c2ccccc2c1=O [WDH-2G-6, 3-Isopropyl-2-(1-(4-(trifluoromethoxy)benzyl)-1H-pyrazol-4-yl)quinolin-4(1H)-one] | 81.6 % of cntls |

same assay, conditions: additional compounds; […]

| Molecule | IC50 |
| --- | --- |
| 3-Methyl-2-(1-(4-(trifluoromethoxy)phenethyl)-1H-pyrazol-4-yl)quinolin-4(1H)-one [WDH-2R-4] | 380 nM |

tested on: Mycobacterium tuberculosis (Mtb) H37Rv; assay: MGIT growth inhibition assay, time to positivity; type: cell-based; conditions: Table 6; compounds at 5x IC90; drug free control 11; followed to 74 days

| Molecule | Time to Positivity |
| --- | --- |
| Cc1ccc2nc(C)c(C(=O)NCc3ccc(Oc4ccc(F)cc4)cc3)n2c1 [AWE 402] | 15 days |
| NNC(=O)c1ccncc1 [INH, Isoniazid] | No effect at 74 days |
| CO[C@H]1/C=C/O[C@@]2(C)Oc3c(C)c(O)c4c(O)c(c(/C=N/N5CCN(C)CC5)c(O)c4c3C2=O)NC(=O)/C(C)=C\C=C\[C@H](C)[C@H](O)[C@@H](C)[C@@H](O)[C@@H](C)[C@H](OC(C)=O)[C@@H]1C [Rifampicin] | No effect at 74 days |

same assay, conditions: Table 7 / FIG. 9; compounds at 5x IC90; 7.5×10^5 Mtb cells per tube; drug free control 8; followed to 80 days

| Molecule | Time to Positivity |
| --- | --- |
| NNC(=O)c1ccncc1 [INH, Isoniazid] | No effect |

same assay, conditions: Table 8; WDH-2G-6 3 μM, MTC420 5.5 μM, lansoprazole sulphide 26.5 μM, TMC207 250 nM; media control 10

| Molecule | Time to Positivity |
| --- | --- |
| Cc1ccc2nc(C)c(C(=O)NCc3ccc(Oc4ccc(F)cc4)cc3)n2c1 [AWE 402] | 13 days |
| Cc1c(OCC(F)(F)F)ccnc1CSc1nc2ccccc2[nH]1 [Lansoprazole sulphide, lansoprazole sulfide] | 13 days |
| CC(C)c1c(-c2cnn(Cc3ccc(OC(F)(F)F)cc3)c2)[nH]c2ccccc2c1=O [WDH-2G-6, 3-Isopropyl-2-(1-(4-(trifluoromethoxy)benzyl)-1H-pyrazol-4-yl)quinolin-4(1H)-one] | 10 days |

same assay, conditions: lansoprazole sulfide 26.5 μM, CK-2-63 35 μM; drug-free control 10 days

| Molecule | Time to positivity (TtP) |
| --- | --- |
| Cc1c(OCC(F)(F)F)ccnc1CSc1nc2ccccc2[nH]1 [Lansoprazole sulphide, lansoprazole sulfide] | 13 days |

molecular target: recombinant M. tuberculosis bd-I (Mycobacterium tuberculosis, UniProt L7N662); assay: Steady-state kinetics of quinol:Mtb bd-I activity with artificial quinol substrates; conditions: FIG. 1, measured at 283 nm
Sequence (L7N662 1-485): as above

| Molecule | specific catalytic activity |
| --- | --- |
| COc1c(O)c(C)c(CC=C(C)C)c(O)c1OC [Compound Q1H2, ubiquinol-1] | 5.26 ± 0.52 µmol/min/mg |
